Values quoted from earlier work in patent US20220265629A1, “TREATMENT OF SYSTOLIC DYSFUNCTION AND HEART FAILURE WITH REDUCED EJECTION FRACTION WITH THE COMPOUND (R)-4-(1-((3-(DIFLUOROMETHYL)-1-METHYL-1H-PYRAZOL-4-YL)SULFONYL)-1-FLUOROETHYL)-N-(ISOXAZOL-3-YL)PIPERIDINE-1-CARBOXAMIDE” (MyoKardia, Inc., priority 2019, published 2022).

Experiments:
HFrEF = settings: Teerlink et al.; cited from earlier work
healthy volunteers = settings: correlated with increase in SET; cited from earlier work

In the case of COC(=O)N1CCN(Cc2cccc(NC(=O)Nc3ccc(C)nc3)c2F)CC1 [omecamtiv mecarbil], the troponin (HFrEF) is listed as “Mild troponin elevation” and the “ischemia at high doses” value (healthy volunteers) is listed as “resulted in ischemia”.
